Drawing on patent US20210221866A1, “PROTEASE-RESISTANT LIPIDATED GLP-1 ANALOGS” (MEDIMMUNE LIMITED, priority 2015, published 2021), this text covers EC50 for six molecules.

Read-outs that look alike come from different tables or passages of the source. Numbered stars: 1 amine (or outer) side, 2 acyl side, 3 side chain; on linkers, the order of the positions; unused ones are H or OH. Square brackets hold non-standard residues; d marks the D form. Side chains are listed from the residue outwards. Peptide text beside a SMILES is read from it. * marks the point of attachment. γGlu = O=C(O)[C@H](CCC(=O)[*:2])N[*:1]; αMeF = C[C@](N)(Cc1ccccc1)C(=O)O; αMeK = C[C@](N)(CCCCN)C(=O)O; Lauroyl = CCCCCCCCCCCC(=O)*; αMeS = C[C@](N)(CO)C(=O)O; AEEA = NCCOCCOCC(=O)O; Aib = CC(C)(N)C(=O)O

In this experiment the target is T1, human GLP-1 receptor (GLP-1R) (Homo sapiens, UniProt P43220).
T1 construct: expressed in transfected cells; host or cells: HEK293 cells or CHO cells
As to the kind of experiment: cAMP assay, human GLP-1R cells. In kind it is cell-based. The note with it: Table 11, tris-lipidated peptides. Put shortly: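 Peptide-stimulated cAMP measured by two-step HTRF after a 30 min room-temperature incubation with receptor-expressing cells (hGLP-1R, hGIPR at 1×10^5 cells/ml; hGCGR at 2×10^5 cells/ml). Duplicate dilutions; EC50 from 4-parameter logistic fit of % Delta F.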
In general terms: Changes in cAMP serve as a functional read-out for many G protein-coupled receptors.

The mark [1] stands for this setting: mean of n1 and n2, read-out: Primary assay EC50 Mean pM GLP-1R.
Where [2] appears, read: replicate n1, read-out: Primary assay EC50 GLP-1R n1.
The mark [3] stands for this setting: replicate n2, read-out: Primary assay EC50 GLP-1R n2.

T1 sequence (P43220 24-463): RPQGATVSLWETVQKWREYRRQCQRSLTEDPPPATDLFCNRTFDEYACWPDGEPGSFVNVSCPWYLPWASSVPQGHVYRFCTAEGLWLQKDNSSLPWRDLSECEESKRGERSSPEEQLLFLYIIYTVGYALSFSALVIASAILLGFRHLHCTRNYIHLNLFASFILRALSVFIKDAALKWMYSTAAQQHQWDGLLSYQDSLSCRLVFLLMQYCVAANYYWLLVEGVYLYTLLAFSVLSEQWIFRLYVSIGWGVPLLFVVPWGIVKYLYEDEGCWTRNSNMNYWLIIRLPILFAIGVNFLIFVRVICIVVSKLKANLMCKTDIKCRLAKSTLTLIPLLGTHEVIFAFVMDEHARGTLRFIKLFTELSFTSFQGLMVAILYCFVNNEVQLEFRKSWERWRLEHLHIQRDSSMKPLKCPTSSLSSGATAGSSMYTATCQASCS

For the molecule `CCCCCCCCCCCC(=O)N[C@@H](CCC(=O)NCCOCCOCC(=O)NCCOCCOCC(=O)NCCCC[C@H](NC(=O)[C@H](C)NC(=O)[C@@H](NC(=O)[C@H](Cc1ccccc1)NC(=O)[C@H](CCC(=O)O)NC(=O)[C@](C)(CCCCN)NC(=O)[C@H](C)NC(=O)[C@H](CCCCNC(=O)COCCOCCNC(=O)COCCOCCNC(=O)CC[C@H](NC(=O)CCCCCCCCCCC)C(=O)O)NC(=O)[C@H](CCC(=O)O)NC(=O)CNC(=O)[C@H](CCC(=O)O)NC(=O)[C@H](CC(C)C)NC(=O)[C@H](Cc1ccc(O)cc1)NC(=O)[C@H](CO)NC(=O)[C@H](CO)NC(=O)[C@H](CCCCNC(=O)COCCOCCNC(=O)COCCOCCNC(=O)CC[C@H](NC(=O)CCCCCCCCCCC)C(=O)O)NC(=O)[C@H](CC(=O)O)NC(=O)[C@H](CO)NC(=O)[C@@H](NC(=O)[C@](C)(Cc1ccccc1)NC(=O)[C@H](CO)NC(=O)CNC(=O)[C@H](CCC(=O)O)NC(=O)C(C)(C)NC(=O)[C@@H](N)Cc1c[nH]cn1)[C@@H](C)O)[C@@H](C)CC)C(=O)N[C@H](C(=O)N[C@H](C(=O)N[C@@H](CCC(=O)O)C(=O)NCC(=O)NCC(N)=O)C(C)C)C(C)C)C(=O)O` [compound 457] (H-H[Aib]EGS[αMeF]TSDK([AEEA-AEEA-γGlu-Lauroyl])SSYLEGEK([AEEA-AEEA-γGlu-Lauroyl])A[αMeK]EFIAK([AEEA-AEEA-γGlu-Lauroyl])VVEGG-NH2; N-terminus assumed), the concentration for a half-maximal effect (EC50) (commonly the concentration that produces a half-maximal response) is 142 pM under setting [1], 127 pM under setting [2] and 156 pM under setting [3].

`CCCCCCCCCCCC(=O)N[C@@H](CCC(=O)NCCOCCOCC(=O)NCCOCCOCC(=O)NCCCC[C@H](NC(=O)[C@H](C)NC(=O)[C@@H](NC(=O)[C@H](Cc1ccccc1)NC(=O)[C@H](CCC(=O)O)NC(=O)[C@](C)(CCCCN)NC(=O)[C@H](C)NC(=O)[C@H](C)NC(=O)[C@H](CCC(=O)O)NC(=O)[C@H](CCCCNC(=O)COCCOCCNC(=O)COCCOCCNC(=O)CC[C@H](NC(=O)CCCCCCCCCCC)C(=O)O)NC(=O)[C@H](CCC(=O)O)NC(=O)[C@H](CC(C)C)NC(=O)[C@H](CCCCNC(=O)COCCOCCNC(=O)COCCOCCNC(=O)CC[C@H](NC(=O)CCCCCCCCCCC)C(=O)O)NC(=O)[C@H](CO)NC(=O)[C@](C)(CO)NC(=O)[C@@H](NC(=O)[C@H](CC(=O)O)NC(=O)[C@H](CO)NC(=O)[C@@H](NC(=O)[C@](C)(Cc1ccccc1)NC(=O)[C@H](CO)NC(=O)CNC(=O)[C@H](CCC(=O)O)NC(=O)C(C)(C)NC(=O)[C@@H](N)Cc1c[nH]cn1)[C@@H](C)O)C(C)C)[C@@H](C)CC)C(=O)N[C@H](C(=O)N[C@H](C(=O)N[C@@H](CCC(=O)O)C(=O)NCC(=O)NCC(N)=O)C(C)C)C(C)C)C(=O)O` [compound 463] (H-H[Aib]EGS[αMeF]TSDV[αMeS]SK([AEEA-AEEA-γGlu-Lauroyl])LEK([AEEA-AEEA-γGlu-Lauroyl])EAA[αMeK]EFIAK([AEEA-AEEA-γGlu-Lauroyl])VVEGG-NH2; N-terminus assumed): the EC50 is, setting by setting: under setting [1], 82 pM; under setting [2], 69.5 pM; under setting [3], 94.4 pM. Take `CCCCCCCCCCCC(=O)N[C@@H](CCC(=O)NCCOCCOCC(=O)NCCOCCOCC(=O)NCCCC[C@H](NC(=O)CNC(=O)[C@H](CCC(=O)O)NC(=O)[C@H](CC(C)C)NC(=O)[C@H](Cc1ccc(O)cc1)NC(=O)[C@H](CO)NC(=O)[C@H](CO)NC(=O)[C@H](CCCCNC(=O)COCCOCCNC(=O)COCCOCCNC(=O)CC[C@H](NC(=O)CCCCCCCCCCC)C(=O)O)NC(=O)[C@H](CC(=O)O)NC(=O)[C@H](CO)NC(=O)[C@@H](NC(=O)[C@](C)(Cc1ccccc1)NC(=O)[C@H](CO)NC(=O)CNC(=O)[C@H](CCC(=O)O)NC(=O)C(C)(C)NC(=O)[C@@H](N)Cc1c[nH]cn1)[C@@H](C)O)C(=O)N[C@@H](C)C(=O)N[C@@H](C)C(=O)N[C@@](C)(CCCCN)C(=O)N[C@@H](CCC(=O)O)C(=O)N[C@@H](Cc1ccccc1)C(=O)N[C@H](C(=O)N[C@@H](C)C(=O)N[C@@H](Cc1ccccc1)C(=O)N[C@@H](CCCCNC(=O)COCCOCCNC(=O)COCCOCCNC(=O)CC[C@H](NC(=O)CCCCCCCCCCC)C(=O)O)C(=O)N[C@H](C(=O)N[C@@H](CCC(=O)O)C(=O)NCC(=O)NCC(N)=O)C(C)C)[C@@H](C)CC)C(=O)O` [compound 472] (H-H[Aib]EGS[αMeF]TSDK([AEEA-AEEA-γGlu-Lauroyl])SSYLEGK([AEEA-AEEA-γGlu-Lauroyl])AA[αMeK]EFIAFK([AEEA-AEEA-γGlu-Lauroyl])VEGG-NH2; N-terminus assumed): the half-maximal effective concentration (EC50) under setting [1] was 287 pM. Still for that read-out and setting: with `CCCCCCCCCCCC(=O)N[C@@H](CCC(=O)NCCOCCOCC(=O)NCCOCCOCC(=O)NCCCC[C@H](NC(=O)[C@H](CC(=O)O)NC(=O)[C@H](CO)NC(=O)[C@@H](NC(=O)[C@](C)(Cc1ccccc1)NC(=O)[C@H](CO)NC(=O)CNC(=O)[C@H](CCC(=O)O)NC(=O)C(C)(C)NC(=O)[C@@H](N)Cc1c[nH]cn1)[C@@H](C)O)C(=O)N[C@@H](CO)C(=O)N[C@@H](CO)C(=O)N[C@@H](Cc1ccc(O)cc1)C(=O)N[C@@H](CC(C)C)C(=O)N[C@@H](CCC(=O)O)C(=O)NCC(=O)N[C@@H](CCC(=O)O)C(=O)N[C@@H](C)C(=O)N[C@@H](C)C(=O)N[C@@](C)(CCCCN)C(=O)N[C@@H](CCCCNC(=O)COCCOCCNC(=O)COCCOCCNC(=O)CC[C@H](NC(=O)CCCCCCCCCCC)C(=O)O)C(=O)N[C@@H](Cc1ccccc1)C(=O)N[C@H](C(=O)N[C@@H](C)C(=O)N[C@@H](Cc1ccccc1)C(=O)N[C@@H](CCCCNC(=O)COCCOCCNC(=O)COCCOCCNC(=O)CC[C@H](NC(=O)CCCCCCCCCCC)C(=O)O)C(=O)N[C@H](C(=O)N[C@@H](CCC(=O)O)C(=O)NCC(=O)NCC(N)=O)C(C)C)[C@@H](C)CC)C(=O)O` [compound 474] (H-H[Aib]EGS[αMeF]TSDK([AEEA-AEEA-γGlu-Lauroyl])SSYLEGEAA[αMeK]K([AEEA-AEEA-γGlu-Lauroyl])FIAFK([AEEA-AEEA-γGlu-Lauroyl])VEGG-NH2) the figure was 290 pM. As to `CCCCCCCCCCCC(=O)N[C@@H](CCC(=O)NCCOCCOCC(=O)NCCOCCOCC(=O)NCCCC[C@H](NC(=O)CNC(=O)[C@H](CCC(=O)O)NC(=O)[C@H](CC(C)C)NC(=O)[C@H](CCCCNC(=O)COCCOCCNC(=O)COCCOCCNC(=O)CC[C@H](NC(=O)CCCCCCCCCCC)C(=O)O)NC(=O)[C@H](CO)NC(=O)[C@](C)(CO)NC(=O)[C@@H](NC(=O)[C@H](CC(=O)O)NC(=O)[C@H](CO)NC(=O)[C@@H](NC(=O)[C@](C)(Cc1ccccc1)NC(=O)[C@H](CO)NC(=O)CNC(=O)[C@H](CCC(=O)O)NC(=O)C(C)(C)NC(=O)[C@@H](N)Cc1c[nH]cn1)[C@@H](C)O)C(C)C)C(=O)N[C@@H](C)C(=O)N[C@@H](C)C(=O)N[C@@](C)(CCCCN)C(=O)N[C@@H](CCC(=O)O)C(=O)N[C@@H](Cc1ccccc1)C(=O)N[C@H](C(=O)N[C@@H](C)C(=O)N[C@@H](Cc1ccccc1)C(=O)N[C@@H](CCCCNC(=O)COCCOCCNC(=O)COCCOCCNC(=O)CC[C@H](NC(=O)CCCCCCCCCCC)C(=O)O)C(=O)N[C@H](C(=O)N[C@@H](CCC(=O)O)C(=O)NCC(=O)NCC(N)=O)C(C)C)[C@@H](C)CC)C(=O)O` [compound 480] (H-H[Aib]EGS[αMeF]TSDV[αMeS]SK([AEEA-AEEA-γGlu-Lauroyl])LEGK([AEEA-AEEA-γGlu-Lauroyl])AA[αMeK]EFIAFK([AEEA-AEEA-γGlu-Lauroyl])VEGG-NH2; N-terminus assumed), the concentration for a half-maximal effect (EC50) under setting [1] worked out at 57.5 pM. Same read-out and setting: with `CCCCCCCCCCCC(=O)N[C@@H](CCC(=O)NCCOCCOCC(=O)NCCOCCOCC(=O)NCCCC[C@H](NC(=O)[C@H](CCC(=O)O)NC(=O)CNC(=O)[C@H](CCC(=O)O)NC(=O)[C@H](CC(C)C)NC(=O)[C@H](CCCCNC(=O)COCCOCCNC(=O)COCCOCCNC(=O)CC[C@H](NC(=O)CCCCCCCCCCC)C(=O)O)NC(=O)[C@H](CO)NC(=O)[C@](C)(CO)NC(=O)[C@@H](NC(=O)[C@H](CC(=O)O)NC(=O)[C@H](CO)NC(=O)[C@@H](NC(=O)[C@](C)(Cc1ccccc1)NC(=O)[C@H](CO)NC(=O)CNC(=O)[C@H](CCC(=O)O)NC(=O)C(C)(C)NC(=O)[C@@H](N)Cc1c[nH]cn1)[C@@H](C)O)C(C)C)C(=O)N[C@@H](C)C(=O)N[C@@](C)(CCCCN)C(=O)N[C@@H](CCC(=O)O)C(=O)N[C@@H](Cc1ccccc1)C(=O)N[C@H](C(=O)N[C@@H](C)C(=O)N[C@@H](Cc1ccccc1)C(=O)N[C@@H](CCCCNC(=O)COCCOCCNC(=O)COCCOCCNC(=O)CC[C@H](NC(=O)CCCCCCCCCCC)C(=O)O)C(=O)N[C@H](C(=O)N[C@@H](CCC(=O)O)C(=O)NCC(=O)NCC(N)=O)C(C)C)[C@@H](C)CC)C(=O)O` [compound 481] (H-H[Aib]EGS[αMeF]TSDV[αMeS]SK([AEEA-AEEA-γGlu-Lauroyl])LEGEK([AEEA-AEEA-γGlu-Lauroyl])A[αMeK]EFIAFK([AEEA-AEEA-γGlu-Lauroyl])VEGG-NH2) the figure was 143 pM.
